Reference: PMC10466336, “Chemical Probe for Imaging of Polo-like Kinase 4 and Centrioles” (JACS Au, 2023)

Target: T1, GFP-Plk4(K41M) in transfected HeLa cells (Homo sapiens, UniProt O00444, K41M)
T1 construct: expressed in transfected cells; host or cells: HeLa
T1 sequence (O00444 1-970 K41M): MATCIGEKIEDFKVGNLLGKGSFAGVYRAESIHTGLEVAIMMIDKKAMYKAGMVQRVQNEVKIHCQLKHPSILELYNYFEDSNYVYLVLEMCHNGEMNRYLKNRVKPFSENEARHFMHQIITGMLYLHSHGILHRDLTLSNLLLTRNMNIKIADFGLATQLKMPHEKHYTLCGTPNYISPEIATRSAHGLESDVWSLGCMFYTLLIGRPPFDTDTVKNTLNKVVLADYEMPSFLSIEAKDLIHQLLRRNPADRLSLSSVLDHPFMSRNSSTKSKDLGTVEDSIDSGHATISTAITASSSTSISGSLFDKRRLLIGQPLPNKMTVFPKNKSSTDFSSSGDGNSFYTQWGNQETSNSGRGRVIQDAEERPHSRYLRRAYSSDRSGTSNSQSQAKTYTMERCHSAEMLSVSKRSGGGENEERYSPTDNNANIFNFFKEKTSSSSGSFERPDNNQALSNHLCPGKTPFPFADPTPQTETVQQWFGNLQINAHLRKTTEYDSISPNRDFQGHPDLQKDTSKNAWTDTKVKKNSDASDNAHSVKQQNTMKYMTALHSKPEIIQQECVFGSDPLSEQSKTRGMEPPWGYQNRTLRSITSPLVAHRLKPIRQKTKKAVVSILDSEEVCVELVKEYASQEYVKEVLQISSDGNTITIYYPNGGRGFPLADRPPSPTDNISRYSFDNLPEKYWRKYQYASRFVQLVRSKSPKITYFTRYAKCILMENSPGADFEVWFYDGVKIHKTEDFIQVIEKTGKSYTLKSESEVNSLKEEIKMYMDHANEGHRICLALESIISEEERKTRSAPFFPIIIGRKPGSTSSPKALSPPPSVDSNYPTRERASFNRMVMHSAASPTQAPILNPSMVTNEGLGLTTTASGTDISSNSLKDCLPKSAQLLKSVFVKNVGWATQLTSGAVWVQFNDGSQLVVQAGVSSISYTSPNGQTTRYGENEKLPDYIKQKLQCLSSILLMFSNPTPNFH
Test: Live-cell confocal/STED imaging of overexpressed Plk4
Format: cell-based
Details: Cen-TCO 500 nM 1 h, tetrazine 500 nM, no wash (Figure S6)

SMILES: Cc1nnc(COc2cccc3c2C2(OC3=O)c3ccc(N(C)C)cc3[Si](C)(C)c3cc(N(C)C)ccc32)nn1 [HD653, reference compound]
- unspecific signal among tetrazines after Cen-TCO labeling: lowest unspecific signal
